This passage reports IC50 results from patent US20210087206A1, “MACROCYCLIC KINASE INHIBITORS AND THEIR USE” (TURNING POINT THERAPEUTICS, INC., priority 2017, published 2021).

A value given as a limit tells only on which side of the number the result lay.

Common to all, as to experiment: Cell proliferation assay (CellTiter-Glo)
Type in all cases: cell-based

One assay deals with T1, BaF3 EML4-ALK (Homo sapiens, UniProt Q9UM73).
T1 construct: The EML4-ALK gene (variant 1) was synthesized at GenScript and cloned into pCDH-CMV-MCS-EF1-Puro plasmid (System Biosciences, Inc); fused on or other part: EML4 N-terminal part (variant 1: exons 1-13, with the coiled-coil that oligomerises the fusion) fused to the intracellular part of ALK, which contains the kinase domain; Q9HC35 (Echinoderm microtubule-associated protein-like 4)
The note with it: anti-cell proliferation, 72 hours. The method in brief: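 Ba/F3 cells were lentivirally transduced with EML4-ALK variant 1 and selected for puromycin resistance and IL-3-independent growth. Proliferation was measured by CellTiter-Glo ATP luminescence to give IC50.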

In the next assay the test system is KG-1 cell (OP2-FGFR1). The conditions noted are these: Homo sapiens, anti-cell proliferation, 72 hours. The method in brief:
(§1)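 Cells seeded 24 h, then exposed to compounds for 72 h at 37° C., 5% CO2. Proliferation read by CellTiter-Glo luminescent ATP detection; IC50 from dose-response fits.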

In another assay the test system is KM12 (TPM3-TRKA). The note with it: Homo sapiens, anti-cell proliferation, 72 hours. The method, boiled down:
as §1

T1 sequence (Q9UM73 whole entry, stated change not applied, the tested form may be a part): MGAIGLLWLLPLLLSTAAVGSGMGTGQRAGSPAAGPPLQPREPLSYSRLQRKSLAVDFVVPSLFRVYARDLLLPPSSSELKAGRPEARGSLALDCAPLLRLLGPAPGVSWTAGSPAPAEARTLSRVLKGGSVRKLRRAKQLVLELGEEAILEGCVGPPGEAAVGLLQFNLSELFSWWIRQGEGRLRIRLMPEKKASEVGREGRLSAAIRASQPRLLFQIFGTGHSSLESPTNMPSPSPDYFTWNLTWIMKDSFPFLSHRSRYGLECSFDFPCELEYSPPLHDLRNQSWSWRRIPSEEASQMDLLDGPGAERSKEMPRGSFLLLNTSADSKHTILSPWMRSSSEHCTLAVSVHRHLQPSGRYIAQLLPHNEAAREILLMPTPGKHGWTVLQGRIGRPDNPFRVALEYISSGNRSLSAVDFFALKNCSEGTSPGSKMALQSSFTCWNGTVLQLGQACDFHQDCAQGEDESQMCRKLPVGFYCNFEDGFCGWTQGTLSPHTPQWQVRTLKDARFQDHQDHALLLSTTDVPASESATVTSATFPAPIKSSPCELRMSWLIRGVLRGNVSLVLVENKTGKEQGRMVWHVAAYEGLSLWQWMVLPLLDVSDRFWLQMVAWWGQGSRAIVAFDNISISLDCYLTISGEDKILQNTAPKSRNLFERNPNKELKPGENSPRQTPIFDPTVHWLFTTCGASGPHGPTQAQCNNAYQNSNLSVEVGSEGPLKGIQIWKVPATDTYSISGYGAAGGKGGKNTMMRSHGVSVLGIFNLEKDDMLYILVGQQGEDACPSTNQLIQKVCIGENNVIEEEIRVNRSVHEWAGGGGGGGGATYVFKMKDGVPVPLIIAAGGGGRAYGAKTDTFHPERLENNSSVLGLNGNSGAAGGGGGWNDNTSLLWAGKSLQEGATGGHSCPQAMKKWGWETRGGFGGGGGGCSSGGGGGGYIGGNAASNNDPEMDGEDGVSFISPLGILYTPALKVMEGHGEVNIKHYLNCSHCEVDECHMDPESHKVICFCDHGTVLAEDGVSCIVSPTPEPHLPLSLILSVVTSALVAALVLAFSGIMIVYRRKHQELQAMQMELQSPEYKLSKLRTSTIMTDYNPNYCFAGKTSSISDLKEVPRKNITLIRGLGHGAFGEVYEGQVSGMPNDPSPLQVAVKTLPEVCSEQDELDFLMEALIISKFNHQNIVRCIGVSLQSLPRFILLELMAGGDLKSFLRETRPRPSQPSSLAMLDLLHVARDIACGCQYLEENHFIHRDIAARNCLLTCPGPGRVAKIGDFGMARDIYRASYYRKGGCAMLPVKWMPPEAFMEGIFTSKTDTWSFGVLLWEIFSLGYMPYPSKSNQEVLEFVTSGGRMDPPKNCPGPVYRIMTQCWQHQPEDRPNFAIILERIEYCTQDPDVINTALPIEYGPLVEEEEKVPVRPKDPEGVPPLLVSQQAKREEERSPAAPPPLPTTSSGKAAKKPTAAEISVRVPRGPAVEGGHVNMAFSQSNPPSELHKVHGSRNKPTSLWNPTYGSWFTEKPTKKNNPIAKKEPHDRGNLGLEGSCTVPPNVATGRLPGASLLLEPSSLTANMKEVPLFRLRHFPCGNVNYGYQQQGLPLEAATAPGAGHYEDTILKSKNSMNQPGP

Turning to `C[C@@H]1COc2ncc(F)cc2CN2c3nc4c(cnn4cc3OCC23CCCC3)C(=O)N1` [Compound 59, (13′R)-8′-fluoro-13′-methyl-3′H,6′H,12′H,13′H,14′H,15′H-spiro[cyclopentane-1,4′-[2,11]-dioxa[5,10,14,17,18,19]hexaaza-[18,1](metheno)[1,4]oxazino-[3,4-i]pyrazolo[4,3-f]pyrido-[3,2-l][1,4,8,10]oxatriazacyclo-tridecin]-15′-one], the IC50 against BaF3 EML4-ALK was 1020 nM; in the assay with KG-1 cell (OP2-FGFR1), 2000 nM; with KM12 (TPM3-TRKA), below 0.2 nM.

With `C[C@@H]1COc2cn3ncc4c3nc2N1Cc1cc(F)cnc1OC[C@@H](C(F)F)NC4=O` [Compound 97, (4R,13S)-13-(difluoromethyl)-8-fluoro-4-methyl-3,4,13,14-tetra-hydro-6H-18,1-(metheno)[1,4]-oxazino[3,4-i]pyrazolo[4,3-f]pyrido[3,2-l][1,4,8,10]oxatriaza-cyclotridecin-15(12H)-one], the IC50 at BaF3 EML4-ALK was 20.2 nM; in the assay on KG-1 cell (OP2-FGFR1) it was 19.9 nM; with KM12 (TPM3-TRKA) it was below 0.2 nM.

Take `C[C@@H]1COc2ncc(F)cc2CN2c3nc4c(cnn4cc3OC[C@H]2CC#N)C(=O)N1` [Compound 41, [(4R,13R)-8-fluoro-13-methyl-15-oxo-3,4,12,13,14,15-hexahydro-6H-18,1-(metheno)[1,4]oxazino[3,4-i]pyrazolo[4,3-f]pyrido[3,2-][1,4,8,10]oxatriazacyclotridecin-4-yl]acetonitrile]: the figures for the IC50 on BaF3 EML4-ALK, in the assay on KG-1 cell (OP2-FGFR1) and with KM12 (TPM3-TRKA) were 1170 nM, 611 nM and 0.5 nM, respectively.

For `C[C@@H]1COc2ncc(F)cc2CN2c3nc4c(cnn4cc3OCC2(C)C)C(=O)N1` [Compound 68, (13R)-8-fluoro-4,4,13-trimethyl-3,4,13,14-tetrahydro-6H-18,1-(metheno)[1,4]oxazino[3,4-i]-pyrazolo[4,3-f]pyrido[3,2-l] [1,4,8,10]oxatriazacyclotridecin-15(12H)-one], the IC50 was 339 nM against BaF3 EML4-ALK, 5690 nM in the assay on KG-1 cell (OP2-FGFR1) and below 0.2 nM with KM12 (TPM3-TRKA).

Take `CO[C@@H]1COc2cn3ncc4c3nc2N(Cc2cc(F)cnc2O[C@@H](C)CNC4=O)C1` [Compound 91, (4S,13S)-9-fluoro-4-methoxy-13-methyl-4,5,14,15-tetrahydro-3H,7H-19,1-(metheno)[1,4]oxazepino[3,4-i]pyrazolo[4,3-f]pyrido[3,2-1][1,4,8,10]oxatriazacyclotridecin-16(13H)-one]: the IC50 at BaF3 EML4-ALK amounted to 234 nM; with KG-1 cell (OP2-FGFR1) it was 990 nM; in the assay with KM12 (TPM3-TRKA) it was 64.2 nM.

As to `C[C@H]1CNC(=O)c2cnn3cc4c(nc23)N(Cc2cc(F)ccc2O1)[C@H](COCc1ccccc1)CO4` [Compound 11, (4R,12S)-4-[(benzyloxy)methyl)-8-fluoro-12-methyl-3,4,13,14-tetrahydro-6H-18,1-(metheno)-[1,4]oxazino[3,4-i]pyrazolo[4,3-f][1,4,8,10]benzoxatriazacyclo-tridecin-15(12H)-one], the IC50 on BaF3 EML4-ALK turned out to be 3170 nM; in the assay with KG-1 cell (OP2-FGFR1) it was 4000 nM; with KM12 (TPM3-TRKA), 91.1 nM.

In the case of `C[C@@H]1COc2ncc(F)cc2CN2c3nc4c(cnn4cc3OC[C@H]2C(N)=O)C(=O)N1` [Compound 60, (4S,13R)-8-fluoro-13-methyl-15-oxo-3,4,12,13,14,15-hexahydro-6H-18,1-(metheno)[1,4]oxazino[3,4-i]pyrazolo[4,3-f]pyrido[3,2-l][1,4,8,10]oxatriazacyclotridecine-4-carboxamide], the figures for the IC50 against BaF3 EML4-ALK, with KG-1 cell (OP2-FGFR1) and in the assay with KM12 (TPM3-TRKA) were above 10000 nM, above 10000 nM and 51.2 nM, respectively.

On to `C[C@@H]1COc2cn3ncc4c3nc2N1Cc1cc(F)cnc1OC[C@@H](F)CNC4=O` [Compound 78, (7S,16R)-7,12-difluoro-16-methyl-5,6,7,8,16,17-hexahydro-4H,14H,- 1,19-(metheno)[1,4]oxazino[4,3-e]pyrazolo[3,4-h]pyrido[2,3-b] [1,5,7,11]oxatriazacyclotetradecin-4-one], for which the half-inhibitory concentration (IC50) against BaF3 EML4-ALK was 33 nM; in the assay on KG-1 cell (OP2-FGFR1) it was 10.2 nM; with KM12 (TPM3-TRKA) it was below 0.2 nM.

Regarding `C[C@@H]1COc2ncc(F)cc2CN2C[C@@H](O)COc3cn4ncc(c4nc32)C(=O)N1` [Compound 88, (4R,14R)-9-fluoro-4-hydroxy-14-methyl-4,5,14,15-tetrahydro-3H,7H-19,1-(metheno)[1,4]-oxazepino[3,4-i]pyrazolo[4,3-f]pyrido[3,2-l][1,4,8,10]oxatriaza-cyclotridecin-16(13H)-one], the IC50 against BaF3 EML4-ALK was 5000 nM; in the assay with KG-1 cell (OP2-FGFR1), 3000 nM; in the assay with KM12 (TPM3-TRKA), 3.1 nM.

In the case of `C[C@H]1CNC(=O)c2cnn3cc4c(nc23)N(Cc2cc(F)cnc2O1)C1(CC1)CO4` [Compound 27, (12′S)-8′-fluoro-12′-methyl-3′H,6′H,12′H,13′H,14′H,15′H-spiro[cyclopropane-1,4′-[2,11]-dioxa[5,10,14,17,18,19]hexaaza-[18,1](metheno)[1,4]oxazino[3,4-i]pyrazolo[4,3-f]pyrido[3,2-l] [1,4,8,10]oxatriazacyclotridecin]-15′-one], the IC50 against BaF3 EML4-ALK was 604 nM; with KG-1 cell (OP2-FGFR1) it was 3570 nM; with KM12 (TPM3-TRKA), below 0.2 nM.

As to `C[C@@H]1COc2cn3ncc4c3nc2N1Cc1cc(F)cnc1O[C@H]1C[C@H](C1)NC4=O` [Compound 95, (6S,8s,16R)-12-fluoro-16-methyl-5,6,7,8,16,17-hexahydro-4H,14H-6,8-methano-1,19-(metheno)[1,4]-oxazino[4,3-e]pyrazolo[3,4-h]-pyrido[2,3-b][1,5,7,11]oxatriaza-cyclotetradecin-4-one], the IC50 at BaF3 EML4-ALK was 16.6 nM; in the assay on KG-1 cell (OP2-FGFR1), 14.1 nM; in the assay with KM12 (TPM3-TRKA) it was below 0.2 nM.

As for `C[C@H]1CNC(=O)c2cnn3cc4c(nc23)N(Cc2cc(F)cnc2O1)[C@H](C1CC1)CO4` [Compound 26, (4R,12S)-4-cyclopropyl-8-fluoro-12-methyl-3,4,13,14-tetrahydro-6H-18,1-(metheno)[1,4]oxazino-[3,4-i]pyrazolo[4,3-f]pyrido-[3,2-l]-[1,4,8,10]oxatriazacyclo-tridecin-15(12H)-one], the half-inhibitory concentration (IC50) against BaF3 EML4-ALK is 692 nM; in the assay with KG-1 cell (OP2-FGFR1) it was 694 nM; in the assay on KM12 (TPM3-TRKA) it was below 0.2 nM.

For `C[C@H]1CNC(=O)c2cnn3cc4c(nc23)N(Cc2cc(F)cnc2OC1)[C@H](C)CO4` [Compound 35, (7S,16R)-12-fluoro-7,16-dimethyl-5,6,7,8,16,17-hexahydro-4H,14H-1,19-(metheno)[1,4]oxazino[4,3-e]pyrazolo[3,4-h]pyrido[2,3-b] [1,5,7,11]oxatriazacyclotetra-decin-4-one], the values for the IC50 on BaF3 EML4-ALK, with KG-1 cell (OP2-FGFR1) and in the assay with KM12 (TPM3-TRKA) were 48.2 nM, 33.5 nM and below 0.2 nM, respectively.

On to `C[C@H]1CNC(=O)c2cnn3cc4c(nc23)N(CCCO4)Cc2cc(F)ccc2O1` [Compound 17, (13S)-9-fluoro-13-methyl-4,5,14,15-tetrahydro-3H,7H-19,1-(metheno)[1,4]oxazepino-[3,4-i]pyrazolo[4,3-f][1,4,8,10]-benzoxatriazacyclotridecin-16(13H)-one], for which the IC50 against BaF3 EML4-ALK was 2640 nM; in the assay with KG-1 cell (OP2-FGFR1), 5000 nM; in the assay on KM12 (TPM3-TRKA), below 0.2 nM.

Turning to `C[C@@H]1COc2cn3ncc4c3nc2N1Cc1cc(F)ccc1OCCNC4=O` [Compound 3, (4R,12S)-8-fluoro-4,12-dimethyl-3,4,13,14-tetrahydro-6H-18,1-(metheno)[1,4]oxazino[3,4-i]-pyrazolo[4,3-f][1,4,8,10]benzo-xatriazacyclotridecin-15(12H)-one], the IC50 on BaF3 EML4-ALK amounted to 94.2 nM; in the assay with KG-1 cell (OP2-FGFR1) it was 271 nM; in the assay on KM12 (TPM3-TRKA) it was 0.2 nM.
